One assay concerns the target UapA (Emericella nidulans, UniProt Q07307, G411V). The experiment in a line: UapA thermal stability, CPM assay. Further details: made in house; host or cells: Saccharomyces cerevisiae FGY217 membranes. The conditions noted are these: CMC+0.2 wt %, 40° C. for 120 minutes. The method, then: UapAG411VΔ1-11 (hereinafter, referred to as “UapA”) was expressed in a Saccharomyces cerevisiae FGY217 strain by GFP fusion, and isolated into a sample buffer (20 mM Tris (pH 7.5), 150 mM NaCl, 0.03% DDM, 1 mM xanthine), which was performed according to the method disclosed in the paper written by J. Leung et al. (Mol. Menthr. Biol. 2013, 30, 32-42). The protein was concentrated to be approximately 10 mg/ml using a 100 kDa molecular weight cutoff filter (Millipore). The protein was diluted 1:150 with a buffer containing DDM, VEG (VEG-1, VEG-2, VEG-3, VEG-4 or VEG-5) or LMNG at CMC+0.2 wt % in Greiner 96. CPM dye (Invitrogen) stored in DMSO (Sigma) was diluted with a dye buffer (20 mM Tris (pH 7.5), 150 mM NaCl, 0.03% DDM, 5 mM EDTA), and 3 μL of the diluted dye was added to an individual protein sample. The reaction mixture was treated at a constant temperature of 40° C. for 120 minutes. A fluorescence emission intensity was monitored using a microplate spectrofluorometer set to excitation and emission wavelengths of 387 and 463 nm, respectively. The maximum fluorescence value was used to calculate the percentage of a protein folded during incubation. The relative amount of the folded protein was plotted over time using GraphPad Prism.

The next assay deals with T1, LHI-RC complex.
T1 construct: His tag (only implied by Ni2+-NTA capture and imidazole elution; put on M from own knowledge of pUHTM86Bgl); made in house; host or cells: R. capsulatus U43 [pUHTM86Bgl] membranes
The experiment in a line: LHI-RC structural stability, UV-Vis absorbance at 875 nm. Set-up: species or system R. capsulatus. As to conditions: CMC+0.04 wt % or CMC+0.2 wt %, 20 days at 25° C. The method, then: An experiment was conducted to evaluate the ability of VEGs to stabilize the structure of LHI-RC. The photosynthetic superassembly consists of a complex of light-Harvesting complex I (LHI) and a reaction center (RC). The structural stability of LHI-RC was measured by a method of monitoring the structure of a protein for 20 days using UV-Vis spectroscopy. As amphipathic molecules, all VEGs of the present invention and conventional amphipathic molecules DDM and OG were used, and the concentrations of the amphipathic molecules were measured at CMC+0.04 wt % (FIG. 5A) and CMC+0.2 wt % ([…]), and the stability of the LHI-RC protein was investigated according to the concentration of an amphipathic molecule.
Specifically, LHI-RC stability was measured using a method disclosed in the paper published in 2008 by the inventors (P. S. Chae et al., ChemBioChem 2008, 9, 1706-1709). […] A 10 mL aliquot of the solution of the frozen R. capsulatus membrane was homogenized using a glass homogenizer, and incubated with gentle stirring at 32° C. for 30 minutes. The homogenized membrane was treated with 1.0 wt % DDM for 30 minutes at 32° C. […] Protein stability was measured at regular intervals during the cubation by measuring UV-Vis spectra of the samples in the range of 650 to 950 nm. Protein integrity was evaluated by monitoring absorbance (A875) at 875 nm.

The target of assay [1] is T2, β2AR-Gs complex (Homo sapiens, UniProt P07550).
T2 construct: made in house
The experiment in a line: β2AR-Gs complex stability by analytical gel filtration (SEC). The conditions noted are these: complex purified in VEG-3, 3 and 15-day incubation, compound-free running buffer. The method, then:
100 μM β2AR solubilized in 0.1% DDM mixed with 120 μM Gs heterotrimer for 30 minutes at room temperature. 0.5-unit apyrase (NEB) and 2 mM MgCl2 were added to facilitate complex formation, followed by further incubation for one hour. Subsequently, 1.0% VEG-3 was added such that the final concentration reached 0.2%, and the sample was further incubated for 30 minutes to change DDM to VEG-3. The protein solution was loaded into a M1 Flag column, washed with a series of buffers with different molar ratios of 0.1% DDM buffer to 0.5% VEG-3 buffer to completely change DDM to VEG-3, and the receptor-Gs complex was finally eluted with a 0.05% VEG-3 buffer. Preparative gel filtration was performed to purify the β2AR-Gs complex with a running buffer (20 mM HEPES pH 7.5, 100 mM NaCl, 0.005% DTM-A6, 1 mM BI, […]). To measure the stability of the β2AR-Gs complex in VEG-3, analytical gel filtrations were performed using the running buffer as above, but after 3 and 15-day incubation, performed without VEG-3 (compound-free condition).
Background: SEC sorts molecules by how far they enter the pores of the column.

Assay [2] addresses T2, β2AR-Gs complex. The assay can be described thus: Negative stain EM analysis of β2AR-Gs complex. The conditions noted are these: complex purified by VEG-3. As to the method: A β2AR-Gs protein complex was prepared for electron microscopy using a conventional negative staining protocol, and imaged at room temperature using a Tecnai T12 electron microscope operated at 120 kV according to a low-dose procedure. Images recorded at a magnification of 71,138× and a defocus value of approximately −1.1 urn on a Gatan US4000 CCD camera. All images were binned (2×2 pixels) to obtain a pixel size of 4.16 Å at a specimen level. Particles were manually […] using e2boxer (part of the EMAN2 software suite). 2D reference-free alignment and classification of particle projections were performed using ISAC. 23,035 projections of β2AR-Gs were subjected to ISAC producing 19 classes consistent in two-way matching and 5401 particle projections.

As for `Cc1c(C)c2c(c(C)c1OCC(=O)NC(CO[C@@H]1OC(CO)[C@@H](O[C@H]3OC(CO)[C@@H](O)[C@H](O)C3O)[C@H](O)C1O)CO[C@@H]1OC(CO)[C@@H](O[C@H]3OC(CO)[C@@H](O)[C@H](O)C3O)[C@H](O)C1O)CCC(C)(CCCC(C)CCCC(C)CCCC(C)C)O2` (stereo partly shown) [VEG-3], the “Ability to maintain UapA in a structurally stable state (CPM assay)” value at UapA was “excellent ability to maintain UapA in a structurally stable state”. Further, the “Ability to maintain the integrity of the LHI-RC complex (A875)” value in the assay on LHI-RC complex is on record as “most excellent effect”. In addition, the “Integrity of the purified β2AR-Gs complex (SEC)” value on β2AR-Gs complex [1] is recorded as “continuously maintains its integrity as a complex for 15 days”. Besides, on β2AR-Gs complex [2], the “Homogeneity of β2AR-Gs complex particles (negative stain EM)” value is given as “highly homogeneous”.

For the origin of these results see US11591306B2, “Vitamin E-based amphipathic compound, and use thereof” (Industry-University Cooperation Foundation Hanyang …, priority 2017, dated 2023).
